These results are taken from patent US20100099118A1, “METHODS OF DETERMINING TOTAL PON1 LEVEL” (priority 2007, published 2010).

Where “and” joins values, the source holds several entries; their conditions need not be identical. Identical values can stand only once.

For experiment [1], the target named is T1, serum PON1 (Homo sapiens, UniProt P27169, Q192R).
T1 construct: The samples were collected from 54 healthy individuals at Rambam Medical Center; from tissue; host or cells: human serum from 54 healthy individuals
The experiment in a line: Lactonase activity in sera measured with TBBL. Format: biochemical. The following applies: RR sera (n = 6); 0.25 mM TBBL; mean and S.D. The method, then: (§1) Lactonase Activity in Sera: Human sera were kindly provided by Michael Aviram. The samples were collected from 54 healthy individuals at Rambam Medical Center (Haifa, Israel) with the approval of the institute's Helsinki committee. Phenotyping sera for the PON1-192R/Q polymorphism was performed by a two-substrate method [Eckerson, H. W., et al., Am J Hum Genet. 35: 1126-1138] as previously described [Gaidukov, L., M. Rosenblat, M. Aviram, and D. S. Tawfik. 2006. J Lipid Res 47: 2492-2502]. Sera were divided into aliquots, supplemented with β-mercaptoethanol (5 mM) to prevent oxidation, and stored frozen at −20° C. All assays were performed in 96-well plates (Nunc), using an automated microplate reader (Bio-Tek; optical length ˜0.5 cm). Lactonase activity was measured in activity buffer (50 mM Tris pH 8.0, 1 mM CaCl2) containing 0.25 mM of 5-thiobutyl butyrolactone (TBBL) [Gaidukov, L., et al., 2006 J Lipid Res 47: 2492-2502] and 0.5 mM 5,5′-dithio-bis-2-nitrobenzoic acid (DTNB) by monitoring the absorbance at 412 nm in a final volume of 200 μl (ε=7,000 OD/M). The serum was diluted 400-fold in 100 μl of activity buffer complemented with 1 mM DTNB. DTNB was used from 100 mM stock in DMSO. TBBL was used from 250 mM stock in acetonitrile. TBBL was diluted 500-fold in activity buffer containing 2% acetonitrile. The reaction was initiated by adding 100 μl of TBBL (0.5 mM) to 100 μl of sera dilution. The final sera dilution was 800-fold. All the reaction mixtures contained a final 1% acetonitrile. Rates of spontaneous hydrolysis of TBBL in buffer were subtracted from all the measurements. Activities were expressed as U/ml (1 unit=1 μmol of TBBL hydrolyzed per minute per 1 ml of undiluted serum).

Experiment [2] has as its system serum PON1. The experiment is described as follows: Lactonase activity in sera measured with TBBL. Format: biochemical, human. The conditions noted are these: for TBBL lactonase activity: 0.25 mM TBBL, mean and S.D. The method, then: as §1
Experiment [3] concerns the target T2, serum PON1 (Homo sapiens, UniProt P27169).
T2 construct: The samples were collected from 54 healthy individuals at Rambam Medical Center; from tissue; host or cells: human serum from 54 healthy individuals
The experiment in a line: Lactonase activity in sera measured with TBBL. Format: biochemical. The following applies: QQ sera (n = 34); 0.25 mM TBBL; mean and S.D. On the procedure:
as §1

Experiment [4] addresses purified human PON1 polymorphs (Homo sapiens, UniProt P27169). The experiment is described as follows: Specific activity of purified human PON1 polymorphs for TBBL in absence of HDL. Format: biochemical. The conditions noted are these: 0.25 mM TBBL, same for both polymorphs.
Another experiment deals with PON1. The following applies: from Gaidukov et al. 2006; cited from earlier work.
For experiment [5], the system named is serum PON1. The experiment in a line: Arylesterase activity in sera (phenyl acetate). Format: biochemical. The conditions noted are these: 54 human sera. On the procedure: (§2) Phenyl acetate and paraoxonase activities were measured in 50 mM Tris pH 8.0 with 1 mM CaCl2. All activities were measured with 1 mM substrate, and expressed in Units/ml for phenyl acetate (1 μmol of phenyl acetate hydrolyzed per min per 1 ml undiluted serum) or mUnits/ml for other activities (1 nmol of substrate hydrolyzed per min per 1 ml undiluted serum). Horizontal bars represent the mean value for each group.
(§3) Paraoxonase and aryl esterase activity in sera: Paraoxonase activity in sera samples was measured in activity buffer with 1 mM paraoxon by monitoring the absorbance at 405 nm in a final volume of 200 μl (ε=10,515 OD/M). Arylesterase activity was measured in activity buffer with 1 mM phenyl acetate by monitoring the absorbance at 270 nm in a final volume of 200 μL (ε=7000D/M).

Experiment [6] concerns serum PON1. The experiment in a line: Paraoxonase activity in sera. The conditions noted are these: 54 human sera. Format: biochemical. On the procedure:
as §2, §3

[7] abbreviates: 50 mM Tris pH 8.0, 1 mM substrate.

T2 sequence (P27169 2-355): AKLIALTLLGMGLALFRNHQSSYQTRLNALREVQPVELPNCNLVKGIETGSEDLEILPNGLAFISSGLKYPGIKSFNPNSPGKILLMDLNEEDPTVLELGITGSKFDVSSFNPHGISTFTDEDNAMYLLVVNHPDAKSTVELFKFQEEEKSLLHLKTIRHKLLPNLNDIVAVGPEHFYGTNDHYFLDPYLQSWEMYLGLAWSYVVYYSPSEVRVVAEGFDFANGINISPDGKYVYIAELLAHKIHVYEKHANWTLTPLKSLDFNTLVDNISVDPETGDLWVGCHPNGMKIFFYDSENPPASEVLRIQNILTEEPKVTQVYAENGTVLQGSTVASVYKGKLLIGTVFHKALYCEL
T1 sequence (P27169 2-355 Q192R): as the sequence (P27169 2-355) above, with Q191R counted along it
purified human PON1 polymorphs, sequence (P27169 2-355): as the sequence (P27169 2-355) above

Regarding `CCCCSC1CCC(=O)O1` (centres unmarked) [TBBL, 5-thiobutyl butyrolactone], the TBBL lactonase activity on serum PON1 [1] is 5.4 Units/ml and 5.4 ± 2.7 Units/ml; in the experiment with serum PON1 [2] (All sera (n = 54), μmol hydrolyzed per min per 1 ml undiluted serum) it was 3.8 ± 1.9 Units/ml; in the experiment on serum PON1 [2] (RQ sera (n = 14)), 4.1 ± 2.1 Units/ml; on serum PON1 [3], 3.5 Units/ml and 3.5 ± 1.6 Units/ml. The “Variation of TBBLase activity between sera” value with serum PON1 [2] (54 human sera) is 7 fold. Moreover, in the experiment with serum PON1 [2] (RR vs QQ sera), the “Mean lactonase activity in RR sera relative to QQ sera” value was 1.5 fold. Further, the “Specific activity for TBBL” value in experiment [4] is 1.0±0.1 μmol/min/mg of protein.
Take `CC(=O)Oc1ccccc1` [Phenyl acetate]: the “Stimulation upon HDL binding” value with PON1 is recorded as “ca. 2 fold”. Moreover, in the experiment on serum PON1 [5] (setting [7]), the “Mean ± S.D. of activity” value came to 48.2 ± 20.9 Units activity and the Range of activity was 15.6-100.6 Units activity. Also, the “Variation of activity between sera (fold, in brackets under range)” value with serum PON1 [5] is given as “(6) fold”.
On to `CCOP(=O)(OCC)Oc1ccc([N+](=O)[O-])cc1` [Paraoxon], for which, in the experiment with serum PON1 [6] (setting [7]), the “Mean ± S.D. of activity” value worked out at 49.5 ± 36.6 Units activity and the Range of activity is on record as 7.7-173.5 Units activity. In addition, the “Variation of activity between sera (fold, in brackets under range)” value in the experiment on serum PON1 [6] is “(23) fold”.
